In ChEMBL document CHEMBL5584334, “Discovery of a Covalent Inhibitor of Pro-Caspase-1 Zymogen Blocking NLRP3 Inflammasome Activation and Pyroptosis” (J Med Chem, 2024):
Calls of active or inactive are those of the source. No cut-off for these calls is given here.

Legend:
Caspase-1 (Homo sapiens) [1] = target: T1, Caspase-1 (Homo sapiens) (UniProt P29466); assay: Inhibition of recombinant human caspase-1 expressed in Escherichia coli BL21 cells assessed as remaining activity at 10 uM using […] as substrate incubated for 30 mins relative to control
T1 sequence (whole entry): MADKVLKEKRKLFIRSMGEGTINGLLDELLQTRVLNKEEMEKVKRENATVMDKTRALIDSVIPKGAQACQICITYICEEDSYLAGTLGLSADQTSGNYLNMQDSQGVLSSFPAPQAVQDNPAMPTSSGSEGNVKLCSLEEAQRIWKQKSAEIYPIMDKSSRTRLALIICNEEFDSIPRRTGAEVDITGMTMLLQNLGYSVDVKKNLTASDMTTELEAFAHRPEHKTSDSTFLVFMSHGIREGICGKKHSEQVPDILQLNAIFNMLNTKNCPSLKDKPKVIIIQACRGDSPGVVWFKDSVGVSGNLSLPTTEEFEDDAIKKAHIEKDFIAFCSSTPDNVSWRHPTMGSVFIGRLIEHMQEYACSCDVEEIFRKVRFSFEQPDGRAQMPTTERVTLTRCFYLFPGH

THP-1 [2] = assay: Inhibition of p20 fragment of IL-1beta protein expression in LPS/MSU stimulated human THP-1 cells supernatant by Western blotting analysis; assay type: functional, cell-based
Caspase-1 (Homo sapiens) [3] = target: T1, Caspase-1 (Homo sapiens); assay: Inhibition of recombinant human caspase-1 expressed in Escherichia coli BL21 cells assessed as remaining activity at 100 uM using […] as substrate incubated for 30 mins relative to control
BMDM = assay: Effect on cleaved caspase-11 expression in mouse BMDM cells at 0.5 to 2 uM pretreated with pam3CSK4 for 3 hrs followed by compound addition for 30 mins prior to cytosolic LPS stimulation for 16 hrs by ELISA; assay type: functional, cell-based; conditions: dose 0.5-2 µM, time 16.5 hrs
[4] = target: NACHT, LRR and PYD domains-containing protein 3 (Mus musculus) (UniProt Q8R4B8); assay: Inhibition of NLRP3 inflammasome activation in mouse J774.A1 cells assessed as reduction in NLRP3 protein expression at 0.5 to 2 uM preincubated for 30 mins followed by LPS stimulation for 6 hrs by Western blotting analysis; assay type: cell-based; conditions: dose 0.5-2 µM, time 6.5 hrs
J774.A1 [5] = assay: Inhibition of ASC colocalization in LPS/nigericin stimulated mouse J774.A1 cells; assay type: functional, cell-based
J774.A1 [6] = assay: Inhibition of pyroptosis in mouse J774.A1 cells assessed as reduction in cleaved GSDMD expression at 0.5 to 2 uM pretreated with LPS for 3 hrs followed by compound addition in presence of nigericin by Western blotting analysis; assay type: functional, cell-based; conditions: dose 0.5-2 µM
THP-1 [7] = assay: Effect on pro caspase-5 expression in human THP-1 cells at 2 uM pretreated with pam3CSK4 for 3 hrs followed by compound addition for 30 mins prior to cytosolic LPS stimulation for 16 hrs by ELISA; assay type: functional, cell-based; conditions: time 16.5 hrs
[8] = Acute toxicity in Kunming mouse assessed as change in LDH level at 100 mg/kg, ip administered for 14 days; assay type: organism-based; conditions: in vivo, 336 h, time 14 day
Mus musculus [9] = assay: (§1) Anti-inflammatory activity in MSU/C18:0 free fatty acid induced Kunming mouse model of gouty arthritis assessed as effect on pro-IL-1beta expression at 5 to 20 mg/kg, ip preadministered with compound for 30 mins followed by MSU/C18:0 free fatty acid injection and measured after 24 hrs by Western blotting analysis; assay type: functional, organism-based; conditions: dose 5-20 mg/kg, time 24.5 hrs
THP-1 [10] = assay: Effect on pro-caspase-4 expression in human THP-1 cells at 2 uM pretreated with pam3CSK4 for 3 hrs followed by compound addition for 30 mins prior to cytosolic LPS stimulation for 16 hrs by ELISA; assay type: functional, cell-based; conditions: time 16.5 hrs
J774.A1 [11] = assay: Effect on ASC speck formation in mouse J774.A1 cells at 2 uM pretreated with LPS for 3 hrs prior to compound addition followed by nigericin stimulation; assay type: functional, cell-based
HEK293T [12] = assay: Inhibition of recombinant caspae-1 C285A/C397A double mutant (unknown origin) to GSDMD (unknown origin) interaction expressed in HEK293T cells; assay type: cell-based; conditions: Homo sapiens
Caspase-1 (Homo sapiens) [13] = target: T1, Caspase-1 (Homo sapiens); assay: Inhibition of recombinant human caspase-1 expressed in Escherichia coli BL21 cells at 5 to 50 uM using […] as substrate incubated for 30 mins; conditions: dose 5-50 µM
THP-1 [14] = assay: Effect on pro-caspase 1 protein expression in LPS/nigericin stimulated human THP-1 cells supernatant at 0.5 to 2 uM by Western blotting analysis; assay type: functional, cell-based; conditions: dose 0.5-2 µM
J774.A1 [15] = assay: Downregulation of IKKalpha/beta phosphorylation in mouse J774.A1 cells at 0.5 to 2 uM preincubated for 30 mins followed by LPS addition and measured after 2 hrs by Western blotting analysis; assay type: functional, cell-based; conditions: dose 0.5-2 µM, time 2.5 hrs
[16] = tested on: Caspase-1 (Homo sapiens), P29466 [C244A]; assay: Binding affinity to recombinant caspase-1 C244A mutant (unknown origin) at 2 uM by SDS-PAGE analysis
Mus musculus [17] = assay: as §1, with “reduction p20” for “effect on pro-IL-1beta”; assay type: functional, organism-based; conditions: dose 5-20 mg/kg, time 24.5 hrs
Caspase-1 = target: T2, Caspase-1 (Homo sapiens, UniProt P29466); assay: Inhibition of recombinant human caspase-1 expressed in Escherichia coli BL21 cells using […] as substrate incubated for 30 mins
T2 sequence (P29466 whole entry): T1 sequence (whole entry)

J774.A1 [18] = assay: Inhibition of mitochondrial damage in LPS/nigericin stimulated mouse J774.A1 cells; assay type: functional, cell-based
THP-1 [19] = assay: Inhibition of p20 fragment of caspase 1 protein expression in LPS/ATP stimulated human THP-1 cells supernatant by Western blotting analysis; assay type: functional, cell-based
HEK293T [20] = assay: Inhibition of recombinant caspae-1 C270A mutant (unknown origin) to GSDMD (unknown origin) interaction expressed in HEK293T cells; assay type: cell-based; conditions: Homo sapiens
[21] = target: NACHT, LRR and PYD domains-containing protein 3 (Mus musculus) (UniProt Q8R4B8); assay: Inhibition of NLRP3 inflammasome activation in LPS/ATP stimulated mouse J774.A1 cells assessed as reduction in IL-1beta production incubated for 30 mins by ELISA; assay type: cell-based
Mus musculus [22] = species on record: Mus musculus; assay: Inhibition of pain perception in MSU/C18:0 free fatty acid induced Casp1 knockout mouse measured upto 24 hrs; assay type: functional, organism-based
Mus musculus [23] = assay: as §1, with “pro-caspase-1” for “pro-IL-1beta”; assay type: functional, organism-based; conditions: dose 5-20 mg/kg, time 24.5 hrs
HEK293T [24] = assay: Inhibition of recombinant caspae-1 C285A mutant (unknown origin) to GSDMD (unknown origin) interaction expressed in HEK293T cells; assay type: cell-based; conditions: Homo sapiens
[25] = tested on: Caspase-1 (Homo sapiens), P29466 [C285A]; assay: Binding affinity to Flag-tagged caspase-1 C285A mutant (unknown origin) expressed in HEK293T cells by pull-down assay; assay type: cell-based; conditions: dose 2.0 µM
J774.A1 [26] = assay: Inhibition of pyroptosis in mouse J774.A1 cells assessed as reduction in LDH release at 0.5 to 2 uM pretreated with LPS for 3 hrs followed by compound addition in presence of nigericin; assay type: functional, cell-based; conditions: dose 0.5-2 µM
HEK293T [27] = assay: Inhibition of recombinant caspae-1 C244A mutant (unknown origin) to GSDMD (unknown origin) interaction expressed in HEK293T cells; assay type: cell-based; conditions: Homo sapiens
Mus musculus [28] = assay: Anti-inflammatory activity in LPS/MSU-induced Casp1 knockout C57BL/6 mouse model of acute peritonitis assessed as reduction in IL-1beta expression at 20 mg/kg, ip preadministered intraperitoneally with compound for 30 mins followed by MSU injection and measured after 6 hrs by ELISA; assay type: functional, organism-based

Sequence of NACHT, LRR and PYD domains-containing protein 3 (Mus musculus) (Q8R4B8 whole entry, the tested form may be a part): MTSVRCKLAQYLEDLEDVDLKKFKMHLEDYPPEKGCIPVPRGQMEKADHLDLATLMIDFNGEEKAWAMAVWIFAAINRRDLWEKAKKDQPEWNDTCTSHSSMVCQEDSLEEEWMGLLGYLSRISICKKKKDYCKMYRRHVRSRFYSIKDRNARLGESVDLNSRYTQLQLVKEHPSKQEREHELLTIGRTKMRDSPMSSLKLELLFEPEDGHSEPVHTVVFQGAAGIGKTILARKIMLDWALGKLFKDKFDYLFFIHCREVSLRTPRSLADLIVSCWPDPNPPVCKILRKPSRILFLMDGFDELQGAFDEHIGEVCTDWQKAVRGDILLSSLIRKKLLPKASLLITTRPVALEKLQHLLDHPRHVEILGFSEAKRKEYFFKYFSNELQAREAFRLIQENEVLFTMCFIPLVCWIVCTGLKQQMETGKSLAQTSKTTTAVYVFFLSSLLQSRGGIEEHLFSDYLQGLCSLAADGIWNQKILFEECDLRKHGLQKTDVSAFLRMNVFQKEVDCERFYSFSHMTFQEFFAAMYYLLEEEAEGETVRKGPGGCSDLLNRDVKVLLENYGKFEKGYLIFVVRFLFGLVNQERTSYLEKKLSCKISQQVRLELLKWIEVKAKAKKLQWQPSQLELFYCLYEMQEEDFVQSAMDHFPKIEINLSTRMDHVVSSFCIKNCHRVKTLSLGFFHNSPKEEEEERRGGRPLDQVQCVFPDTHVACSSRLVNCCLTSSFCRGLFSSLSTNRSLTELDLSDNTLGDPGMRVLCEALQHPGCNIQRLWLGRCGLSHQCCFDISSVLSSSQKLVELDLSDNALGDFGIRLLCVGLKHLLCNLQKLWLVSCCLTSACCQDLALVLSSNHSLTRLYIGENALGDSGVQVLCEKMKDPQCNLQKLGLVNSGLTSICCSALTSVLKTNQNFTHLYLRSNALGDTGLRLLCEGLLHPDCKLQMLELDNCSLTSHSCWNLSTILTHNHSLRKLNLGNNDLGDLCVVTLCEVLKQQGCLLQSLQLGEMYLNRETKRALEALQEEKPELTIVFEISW
Sequence of Caspase-1 (Homo sapiens), P29466 [C244A] (P29466 whole entry C244A): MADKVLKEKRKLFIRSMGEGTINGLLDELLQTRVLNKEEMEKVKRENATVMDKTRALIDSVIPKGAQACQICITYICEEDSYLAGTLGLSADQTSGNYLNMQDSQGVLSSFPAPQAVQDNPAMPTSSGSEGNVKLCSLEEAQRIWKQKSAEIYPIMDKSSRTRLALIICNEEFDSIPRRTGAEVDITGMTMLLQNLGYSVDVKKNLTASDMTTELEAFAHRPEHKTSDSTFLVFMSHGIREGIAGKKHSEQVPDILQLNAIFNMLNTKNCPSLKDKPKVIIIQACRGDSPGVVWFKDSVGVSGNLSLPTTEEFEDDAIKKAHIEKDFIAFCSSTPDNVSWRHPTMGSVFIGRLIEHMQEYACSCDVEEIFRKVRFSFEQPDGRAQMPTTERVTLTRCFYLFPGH
Sequence of Caspase-1 (Homo sapiens), P29466 [C285A] (P29466 whole entry C285A): as the sequence (P29466 whole entry C244A) above, with A244C, C285A counted along it

COc1ccc2c(c1)[C@]1(C=C[C@H](N=C=S)C[C@H]1C(=O)OC(C)(C)C)C(=O)N2C(=O)OCc1ccccc1
Activity (Caspase-1 (Homo sapiens) [1]): 31% | inhibition (THP-1 [2]): Active | Activity (Caspase-1 (Homo sapiens) [3]): 16% | Activity (BMDM): inactive | inhibition [4]: Active | inhibition (J774.A1 [5]): Active | inhibition (J774.A1 [6]): Active | Activity (THP-1 [7]): inactive | Activity [8]: Non-Toxic | Activity (Mus musculus [9]): inactive | Activity (THP-1 [10]): inactive | inhibition (J774.A1 [11]): Active | inhibition (HEK293T [12]): inactive | inhibition (active/not active) (Caspase-1 (Homo sapiens) [13]): Active | Activity (THP-1 [14]): inactive | Activity (J774.A1 [15]): Active | Activity [16]: Active | Activity (Mus musculus [17]): Active | IC50 (Caspase-1): 650 nM | inhibition (J774.A1 [18]): inactive | inhibition (THP-1 [19]): Active | inhibition (HEK293T [20]): Active | inhibition [21]: Active | inhibition (Mus musculus [22]): inactive | Activity (Mus musculus [23]): inactive | inhibition (HEK293T [24]): inactive | Activity [25]: inactive | inhibition (J774.A1 [26]): Active | inhibition (HEK293T [27]): Active | Activity (Mus musculus [28]): inactive
